Experimental data reported in patent US20080039422A1, “Vitamin B12-Containing Compositions and Methods of Use” (Transition Therapeutics Inc., priority 2004, published 2008).
“And” between values parts separate entries of the source, which are not always exact repeats. Equal values may be shown once.

How the values were obtained:
Assay type in all cases: physicochemical
[1] = Time course of CN-Cbl in solution (8 hours, 200 hours)
Protocol: To establish more precise time courses, ten samples were prepared containing various challenge amounts of CN-Cbl in solutions containing ethanol and propylene glycol. Five of the solutions contained 15% ethanol and 20% propylene glycol and five contained 20% ethanol and 40% propylene glycol. Within each set of five, they were challenged with: (1) 50 mg/ml CN-Cbl; (2) 75 mg/ml CN-Cbl; (3) 100 mg/ml CN-Cbl; (4) 150 mg/ml CN-Cbl; and (5) 200 mg/ml CN-Cbl. To generate the solutions, the methods described above were modified by heating the solutions for 30 consecutive minutes at 60° C., after which time there was no visible precipitate. Samples were also retained within the same tubes for the duration of the study, rather than transferring supernatant fractions to fresh tubes at each time point. The concentrations were recorded eleven times; seven times within the first eight hours following the initial combination and four times over the subsequent 192 hours. The concentrations were measured at 0.5 hours, 1.0 hour, 2.0 hours, 3.0 hours, 4.0 hours, 6.0 hours, 8.0 hours, 24.0 hours, 32.0 hours, 100 hours, and 200 hours. The concentration of CN-Cbl was measured and the percentage of CN-Cbl remaining in solution was calculated.

[2] = Formulation of a buffer system; conditions: 0.025 M phosphate buffer system, pH 8
Protocol: It was also noted that changes in pH occurred during the solubility study. […] A suitable 0.025 M buffer system was developed containing 7.25 mg/ml disodium hydrogen phosphate dodecahydrate and 0.74 mg/ml sodium dihydrogen phosphate dihydrate.

[3] = Solubility study (saturated solubility of CN-Cbl, 25°C, 16 hours, UV)
From the text: During the solubility study the following were investigated: • cosolvents (mixtures of ethanol and propylene glycol) • in-situ salt formers • surfactants • pH effects • in-situ salt formers and cosolvents Solubility Study Method
Results of CN-Cbl Solubility in Water and Determination of Equilibrium Time

[4] = Ref. FD4068 29A, buffer Sodium citrate, citric acid, Initial pH 2.64
[5] = Ref. FD4068 30A, buffer Sodium citrate, citric acid, Initial pH 4.75
[6] = Ref. FD4068 30B, buffer Disodium hydrogen phosphate, sodium dihydrogen phosphate, Initial pH 7.03
[7] = Ref. FD4068 31A, buffer Diethanolamine, hydrochloric acid, Initial pH 8.93

CN-Cbl in solution over time ([1]; challenge 150 and 200 mg/ml, greater in 15% ethanol/20% PG than in 20% ethanol/40% PG): some precipitation | CN-Cbl in solution over time ([1]; first eight hours (held true over 200 hours), challenge 50, 75 and 100 mg/ml, 15% ethanol/20% PG and 20% ethanol/40% PG): remained in solution | reduction of pH of the buffered solution on addition of CN-Cbl [2]: 0.1 pH unit | Saturated Solubility ([3]; 0.1 M Choline (12.12 mg/ml), Initial pH 12.54): 29.5 mg/mL | Saturated Solubility ([3]; 0.1 M Diethanolamine (10.51 mg/ml), Initial pH 10.80): 18.1 mg/mL | Saturated Solubility ([3]; 0.1 M L-arginine (17.42 mg/ml), Initial pH 10.88): 18.2 mg/mL | Saturated Solubility ([3]; 0.1 M L-lysine (16.42 mg/ml), Initial pH 9.60): 16.3 mg/mL | Saturated Solubility ([3]; 0.1 M Meglumine (19.52 mg/ml), Initial pH 11.00): 18.0 mg/mL | Saturated Solubility ([3]; 0.1 M Triethanolamine (14.92 mg/ml), Initial pH 10.13): 18.6 mg/mL | Saturated Solubility ([3]; 0.1 M Triethylamine (10.12 mg/ml), Initial pH 11.64): 24.9 mg/mL | Saturated Solubility ([3]; Ref. FD4068 14A, Propylene glycol 30% v/v, Ethanol 5% v/v): 36.6 mg/mL | Saturated Solubility ([3]; Ref. FD4068 15A, Propylene glycol 32% v/v, Ethanol 5% v/v): 39.8 mg/mL | Saturated Solubility ([3]; Ref. FD4068 15B, Propylene glycol 34% v/v, Ethanol 5% v/v): 39.1 mg/mL | Saturated Solubility ([3]; Ref. FD4068 15C, Propylene glycol 36% v/v, Ethanol 5% v/v): 41.8 mg/mL | Saturated Solubility ([3]; Ref. FD4068 16A, Propylene glycol 38% v/v, Ethanol 5% v/v): 45.5 mg/mL | Saturated Solubility ([3]; Ref. FD4068 16B, Propylene glycol 40% v/v, Ethanol 5% v/v): 48.1 mg/mL | Saturated Solubility ([3]; Ref. FD4068 16C, Propylene glycol 30% v/v, Ethanol 10% v/v): 45.6 mg/mL | Saturated Solubility ([3]; Ref. FD4068 16D, Propylene glycol 32% v/v, Ethanol 10% v/v): 45.8 mg/mL | Saturated Solubility ([3]; Ref. FD4068 17A, Propylene glycol 34% v/v, Ethanol 10% v/v): 47.8 mg/mL | Saturated Solubility ([3]; Ref. FD4068 17B, Propylene glycol 36% v/v, Ethanol 10% v/v): 51.0 mg/mL | Saturated Solubility ([3]; Ref. FD4068 17C, Propylene glycol 38% v/v, Ethanol 10% v/v): 52.2 mg/mL | Saturated Solubility ([3]; Ref. FD4068 17D, Propylene glycol 40% v/v, Ethanol 10% v/v (no surfactant)): 53.8 mg/mL | Saturated Solubility ([3]; Ref. FD4068 26A, 5% w/v Polysorbate 80, 40% v/v propylene glycol, 10% v/v ethanol): 49.0 mg/mL | Saturated Solubility ([3]; Ref. FD4068 26B, 5% w/v Polysorbate 20, 40% v/v propylene glycol, 10% v/v ethanol): 46.5 mg/mL | Saturated Solubility ([3]; Ref. FD4068 26C, 5% w/v Paloxamer 188, 40% v/v propylene glycol, 10% v/v ethanol): 45.1 mg/mL | Saturated Solubility ([3]; Ref. FD4068 27A, 5% w/v Cremophor RH40, 40% v/v propylene glycol, 10% v/v ethanol): 47.1 mg/mL | Saturated Solubility [3, 4]: 15.3 mg/mL | pH of CN-Cbl Solution [3, 4]: 2.89 | Saturated Solubility [3, 5]: 15.0 mg/mL | pH of CN-Cbl Solution [3, 5]: 4.83 | Saturated Solubility [3, 6]: 13.6 mg/mL | pH of CN-Cbl Solution [3, 6]: 7.02 | Saturated Solubility [3, 7]: 17.5 mg/mL | pH of CN-Cbl Solution [3, 7]: 8.80 | pH of CN-Cbl Solution ([3]; Ref. FD4068 33, 0.1 M Choline, 40% v/v propylene glycol, 10% v/v ethanol): 12.61 | Saturated Solubility ([3]; Ref. FD4068 33, Choline 0.100 M (12.12 mg/ml), 40% v/v propylene glycol, 10% v/v ethanol): 91.8 mg/ml and 0.068 M | pH of CN-Cbl Solultion ([3]; Ref. FD4068 33, Choline 0.100 M, 40% v/v propylene glycol, 10% v/v ethanol, Initial pH 12.68): 12.6 and 12.61 | pH of CN-Cbl Solution ([3]; Ref. FD4068 34, 0.1 M Triethylamine, 40% v/v propylene glycol, 10% v/v ethanol): 10.97 | Saturated Solubility ([3]; Ref. FD4068 38A, 10% v/v Ethanol, 40% v/v Propylene Glycol, 0.1 M Choline, pH adjusted with hydrochloric acid, Initial pH 8.58): 60.3 mg/mL | pH of CN-Cbl Solution ([3]; Ref. FD4068 38A, 10% v/v Ethanol, 40% v/v Propylene Glycol, 0.1 M Choline, Initial pH 8.58): 8.10 | Saturated Solubility ([3]; Ref. FD4068 38B, 10% v/v Ethanol, 40% v/v Propylene Glycol, 0.1 M Choline, pH adjusted with hydrochloric acid, Initial pH 7.85): 59.4 mg/mL
Substance: cyanocobalamin [CN-Cbl]
